Source: ChEMBL document CHEMBL3286323, “The design and synthesis of novel SGLT2 inhibitors: C-glycosides with benzyltriazolopyridinone and phenylhydantoin as the aglycone moieties” (Bioorg Med Chem, 2014)

biological target: T1, Sodium/glucose cotransporter 1 (Homo sapiens, UniProt P13866); assay: Inhibition of human SGLT1 expressed in CHOK1 cells assessed as inhibition of [14C]-AMG uptake after 3 hrs by microbeta scintillation counting analysis; type: cell-based, CHO-K1
T1 sequence (P13866 whole entry): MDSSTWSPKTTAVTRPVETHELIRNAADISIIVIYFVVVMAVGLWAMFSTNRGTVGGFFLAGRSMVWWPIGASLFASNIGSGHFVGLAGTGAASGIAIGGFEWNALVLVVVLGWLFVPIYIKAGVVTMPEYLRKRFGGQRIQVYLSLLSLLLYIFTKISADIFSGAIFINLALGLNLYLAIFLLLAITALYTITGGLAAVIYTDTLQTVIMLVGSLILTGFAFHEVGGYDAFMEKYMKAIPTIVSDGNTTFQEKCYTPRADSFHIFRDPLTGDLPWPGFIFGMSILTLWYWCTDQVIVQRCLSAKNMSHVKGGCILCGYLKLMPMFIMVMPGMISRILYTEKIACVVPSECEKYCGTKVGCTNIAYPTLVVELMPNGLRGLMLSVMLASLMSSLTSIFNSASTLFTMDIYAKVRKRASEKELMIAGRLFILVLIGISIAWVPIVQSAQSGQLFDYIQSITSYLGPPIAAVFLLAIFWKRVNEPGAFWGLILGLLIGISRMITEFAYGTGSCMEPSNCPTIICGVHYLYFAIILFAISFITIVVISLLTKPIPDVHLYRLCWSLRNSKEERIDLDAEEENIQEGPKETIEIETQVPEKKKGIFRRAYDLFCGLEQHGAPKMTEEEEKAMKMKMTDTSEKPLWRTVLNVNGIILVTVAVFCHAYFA

Row | Structure (SMILES) | IC50 [nM]
1 | Cc1ccc2nn(Cc3cc([C@@H]4O[C@H](CO)[C@@H](O)[C@H](O)[C@H]4O)ccc3Cl)c(=O)n2c1 | > 90000
2 | Cc1cccc2nn(Cc3cc([C@@H]4O[C@H](CO)[C@@H](O)[C@H](O)[C@H]4O)ccc3Cl)c(=O)n12 | > 90000
3 | O=c1n(Cc2cc([C@@H]3O[C@H](CO)[C@@H](O)[C@H](O)[C@H]3O)ccc2Cl)nc2ccccn12 | > 90000
4 | O=c1n(Cc2cc([C@@H]3O[C@H](CO)[C@@H](O)[C@H](O)[C@H]3O)ccc2Cl)nc2cc(OCC(F)(F)F)ccn12 | > 90000
5 | O=c1n(Cc2cc([C@@H]3O[C@H](CO)[C@@H](O)[C@H](O)[C@H]3O)ccc2Cl)nc2cc(C(F)(F)F)ccn12 | > 90000

Next, values leading:

Row | IC50 [nM] | Structure (SMILES)
6 | > 90000 | O=c1n(Cc2cc([C@@H]3O[C@H](CO)[C@@H](O)[C@H](O)[C@H]3O)ccc2Cl)nc2ccc(Br)cn12
7 | > 90000 | O=c1n(Cc2cc([C@@H]3O[C@H](CO)[C@@H](O)[C@H](O)[C@H]3O)ccc2Cl)nc2ccc(Cl)cn12

biological target: T2, Sodium/glucose cotransporter 2 (Homo sapiens, UniProt P31639); assay: Inhibition of human SGLT2 expressed in CHOK1 cells assessed as inhibition of [14C]-AMG uptake after 3 hrs by microbeta scintillation counting analysis; type: cell-based, CHO-K1
T2 sequence (P31639 whole entry): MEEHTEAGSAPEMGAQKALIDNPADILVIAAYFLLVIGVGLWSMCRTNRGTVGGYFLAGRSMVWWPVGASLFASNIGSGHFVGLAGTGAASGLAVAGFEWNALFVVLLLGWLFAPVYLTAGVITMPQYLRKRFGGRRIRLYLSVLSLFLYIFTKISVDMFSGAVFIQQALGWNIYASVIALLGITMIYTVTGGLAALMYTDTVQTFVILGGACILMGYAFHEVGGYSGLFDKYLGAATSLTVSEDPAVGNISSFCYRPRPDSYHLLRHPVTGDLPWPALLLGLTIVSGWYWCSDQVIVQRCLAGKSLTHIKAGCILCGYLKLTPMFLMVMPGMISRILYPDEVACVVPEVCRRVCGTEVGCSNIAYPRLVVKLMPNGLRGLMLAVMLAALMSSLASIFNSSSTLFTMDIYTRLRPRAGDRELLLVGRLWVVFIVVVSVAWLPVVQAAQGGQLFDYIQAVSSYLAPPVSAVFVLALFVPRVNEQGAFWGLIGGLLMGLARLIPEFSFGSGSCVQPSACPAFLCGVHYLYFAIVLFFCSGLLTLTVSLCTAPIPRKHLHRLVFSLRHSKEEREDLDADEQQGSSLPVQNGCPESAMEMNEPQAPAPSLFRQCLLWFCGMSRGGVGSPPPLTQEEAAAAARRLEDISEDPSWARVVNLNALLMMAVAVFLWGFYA

Row | Structure (SMILES) | IC50 [nM]
8 | O=c1n(Cc2cc([C@@H]3O[C@H](CO)[C@@H](O)[C@H](O)[C@H]3O)ccc2Cl)nc2ccc(CO)cn12 | 141
9 | Cc1ccc2nn(Cc3cc([C@@H]4O[C@H](CO)[C@@H](O)[C@H](O)[C@H]4O)ccc3Cl)c(=O)n2c1 | 120
10 | Cc1cccc2nn(Cc3cc([C@@H]4O[C@H](CO)[C@@H](O)[C@H](O)[C@H]4O)ccc3Cl)c(=O)n12 | 9920
11 | O=c1n(Cc2cc([C@@H]3O[C@H](CO)[C@@H](O)[C@H](O)[C@H]3O)ccc2Cl)nc2ccc(C(F)(F)F)cn12 | 762
12 | O=c1n(Cc2cc([C@@H]3O[C@H](CO)[C@@H](O)[C@H](O)[C@H]3O)ccc2Cl)nc2cc(OCC(F)(F)F)ccn12 | 5700
13 | O=c1n(Cc2cc([C@@H]3O[C@H](CO)[C@@H](O)[C@H](O)[C@H]3O)ccc2Cl)nc2cc(C(F)(F)F)ccn12 | 252

The remaining lines, values ahead:

Row | IC50 [nM] | Structure (SMILES)
14 | 107 | O=c1n(Cc2cc([C@@H]3O[C@H](CO)[C@@H](O)[C@H](O)[C@H]3O)ccc2Cl)nc2ccc(Br)cn12
15 | 89 | O=c1n(Cc2cc([C@@H]3O[C@H](CO)[C@@H](O)[C@H](O)[C@H]3O)ccc2Cl)nc2cc(Cl)ccn12
16 | 80 | O=c1n(Cc2cc([C@@H]3O[C@H](CO)[C@@H](O)[C@H](O)[C@H]3O)ccc2Cl)nc2ccc(Cl)cn12
